Measured values: patent US7825151B2, “Hexahydro-cyclooctyl pyrazole cannabinoid modulators” (priority 2005, dated 2010)
Several values for one entry are separate records, joined by “and”; a condition that tells them apart may be missing. Equal entries are not always repeated.

What was measured:
[1] = test system: oil of mustard induced colitis; assay: Oil of mustard induced colitis model; format: in vivo, Male CD-1 mice; details: 5 mg/kg oral; for % Inh (Macro), % inhibition of colitis: macroscopic score; for % Inh (Micro), % inhibition of colitis: microscopic score
Source text: In the distal colon, the oil of mustard colitis model is characterized by a discontinuous pattern of mucosal epithelial damage, submucosal edema, infiltration of inflammatory cells (including macrophages, neutrophils and lymphocytes) into the mucosa and submucosa, increased wet weight of the colon, shrinkage of the colon length, diarrhea and apparent inflammation (see, Kimball E. S., Palmer J. M., D'Andrea M. R., Hornby P. J. and Wade P. R., Acute colitis induction by oil of mustard results in later development of an IBS-like accelerated upper GI transit in mice, Am. J. Physiol. Gastrointest. Liver Physiol., 2005, 288: G 1266-1273).
Male CD-1 mice (Charles River Laboratories, Kingston, N.C.) (9-11 weeks old) and fresh oil of mustard (OM) (allyl isothiocyanate, 98% purity, Sigma-Aldrich St. Louis, Mo.) were used.
The mice (9 per treatment group) were briefly anesthetized with ketamine/xylasine (Sigma, St. Louis, Mo.) and a solution of 0.5% OM in 30% ethanol (50 μL) was administered intracolonically (to a depth of 4 cm) via syringe (equipped with a ball-tipped 22 G needle).
A test compound was orally administered one day prior to colitis induction for assessing a prophylactic regimen or one day post-induction for assessing a therapeutic regimen. A test compound was orally administered daily thereafter. Two days after OM administration, the last test compound dose was administered.
Three days after OM administration, the animals were sacrificed. The colons were resected, examined for signs of inflammation, weighed after removing fecal contents and the length from the aboral end of the cecum to the anus was measured. The fecal contents were examined for signs of diarrhea. The distal colon between the 1st and the 4th centimeter was removed and placed in 10% neutral buffered formalin for histological analysis.
The macroscopic observations of colon inflammation (a measure of colon damage), colon weight and length and stool consistency and appearance were assigned a score and used to evaluate colitis severity.
The four observation scores for each colon were combined, whereby a combined score of 0 represents a normal colon and a combined score of 15 represents a maximally affected colon. Statistical analyses were performed in Graphpad Prism 4.0 using ANOVA.
Histological analyses of tissues consisted of staining paraffin-embedded tissue sections with hematoxylin-eosin dye. The tissues were examined using light microscopy by an investigator who was blinded to the sample groups. […]
The Macroscopic Score and Microscopic Score results for each treatment group in the prophylactic and therapeutic regimens were each combined into a mean score and expressed as % inhibition of colitis (% Inh). […]

[2] = target: T1, CB2 receptor (Homo sapiens, UniProt P34972); assay: Binding assay for CB2 ([3H]-CP-55,940 displacement, SK-N-MC membranes)
T1 construct: expressed in transfected cells; host or cells: SK-N-MC cells, stably transfected with pcDNA3 CB-2 (human)
T1 sequence (P34972 whole entry): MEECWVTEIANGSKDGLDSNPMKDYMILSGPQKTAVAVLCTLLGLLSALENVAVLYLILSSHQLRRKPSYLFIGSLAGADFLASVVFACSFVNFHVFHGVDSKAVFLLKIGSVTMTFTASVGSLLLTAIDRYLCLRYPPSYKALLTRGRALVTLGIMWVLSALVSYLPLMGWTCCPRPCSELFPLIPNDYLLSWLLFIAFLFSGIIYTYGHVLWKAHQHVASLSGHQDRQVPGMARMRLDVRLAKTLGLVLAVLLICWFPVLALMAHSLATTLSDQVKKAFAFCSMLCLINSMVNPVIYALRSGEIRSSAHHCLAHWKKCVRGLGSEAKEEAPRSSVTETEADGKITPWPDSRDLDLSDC
Description: The human CB1 and CB2 receptors were stably expressed in SK-N-MC cells transfected with pcDNA3 CB-1 (human) or pcDNA3 CB-2 (human). The cells were grown in T-180 cell culture flasks under standard cell culture conditions at 37° C. in a 5% CO2 atmosphere. The cells were harvested by trysinization and homogenized in a homogenization buffer (10 mM Tris, 0.2 mM MgCl2, 5 mM KCl, with protease inhibitors aprotinin, leupeptin, pepstatin A and bacitracin) and centrifuged (2000 g). The supernatant was then centrifuged in 2M sucrose (31,300 g) to produce a semi-purified membrane pellet. The pellet was resuspended in homogenization and stored at −80° C.
On the day of the assay, the pellet was thawed on ice and diluted in assay buffer (50 mM Tris-HCl, 5 mM MgCl2, 2.5 mM EDTA, 0.5 mg/mL fatty acid free bovine serum albumin, pH 7.5). The diluted membrane pellet was added with buffer, either a test compound or vehicle standard and the radioligand [H]^3+-CP-55,940 (0.2 nM) to the wells of a 96-well polypropylene plate. Non-specific binding was measured in wells containing WIN 55,212 (10 uM). The plate was covered and incubated for 90 minutes at 30° C. The contents were then aspirated onto a Packard Unifilter GF/C filter bottom plate prewet with 0.5% polyethyleneimine. The wells of the polypropylene plate were rinsed and aspirated seven times with a 0.9% saline-0.5% Tween 20 solution. The Unifilter plate was dried, scintillation cocktail was added to each well and the counts representing binding were quantitated in a TopCount scintillation counter.
For compounds tested, an IC50 binding value was obtained from percent inhibition studies in which various test concentrations were used. The binding value was calculated by linear regression.
For compounds without an IC50 binding value, the percent inhibition (%) was obtained at a test concentration of ^(1)10 μM, ^(2)1 μM, ^(3)0.2 μM, ^(4)0.003 μM, ^(5) represents an average value.

O=C(NCC12CC3CC(CC(C3)C1)C2)c1nn(C2CCCCC2)c2c1CCCCCC2 [Cpd 2, 1-cyclohexyl-4,5,6,7,8,9-hexahydro-1H-cyclooctapyrazole-3-carboxylic acid (adamantan-1-ylmethyl)-amide]
% Inh (Macro), % inhibition of colitis ([1]; prophylactic regimen): 42.3 ± 12.6%
% Inh (Micro), % inhibition of colitis ([1]; prophylactic regimen): 74.4 ± 3.8%
% Inh (Macro), % inhibition of colitis ([1]; therapeutic regimen): 38.7 ± 9.1%
% Inh (Micro), % inhibition of colitis ([1]; therapeutic regimen): 66.0 ± 9.8%
IC50 ([2]; Cannabinoid CB2 Receptor Binding IC50, radioligand CP-55,940 0.2 nM, SK-N-MC membranes): 1 nM and 6 nM and 10 nM
inhibition at 0.003 µM ([2]; read-out: CB2 receptor binding percent inhibition): 86%
